Laboratory results as given in article PMC9861180, “Nintedanib-αVβ6 Integrin Ligand Conjugates Reduce TGFβ-Induced EMT in Human Non-Small Cell Lung Cancer” (International Journal of Molecular Sciences, 2023).
“Also recorded” adds a separate entry of the source.

Legend:
[1] = test system: K562 cells; test: Cell internalization by flow cytometry, αvβ6-negative K562; assay type: cell-based, human; settings: 5 µM
Description: In these cells, 74% of cells were positive after exposure to compound 1, whilst after exposure to compounds 2 and 3, positive cells ranged between 43.8 and 49% (Figure 4A). […] In addition, we investigated the internalization in αvβ6-negative K562 cells. […] Finally, two other αvβ6 integrin-expressing cell lines were used to evaluate the internalization of these compounds, namely the human melanoma cells SSM2c (Figure S4B) and the L929 murine fibroblasts (Figure S5B).
Briefly, A549 cells were seeded in standard medium (2 × 10^6 cells/100 mm Petri dishes, Sarstedt), and after adhesion, cells were grown in the presence or in the absence of TGFβ (10 ng/mL) for 48 h. […] After 24 h, cells were gently detached using Accutase (ECB3056D, Euroclone, Pero, Milano, Italy) or trypsin and the fluorescence, associated with different cell populations, was evaluated using the BV480 channel of the FACSCanto BD instrument (using 405 nm laser). Untreated cells were used as the negative control. The same procedure was applied to evaluate the internalization in K562, SSM2c, and L929 cells.
3. Expression of αvβ6 integrin receptor in K562 human erythroleukemic cells and internalization of conjugated compounds or nintedanib
Figure S3. Expression of αvβ6 integrin receptor in K562 human erythroleukemia cells (A). […]
assessed by flow cytometry measurements at 5 µM concentration. […]
as assessed by flow cytometry. […]

[2] = test system: TGFβ-treated A549 cells; test: cells; assay type: cell-based, human
Procedure: A549 cell viability was assessed using MTT (3-(4,5-dimethylthiazol-2-yl)-2,5-diphenyltetrazolium bromide) tetrazolium reduction assay (M5655, Sigma Aldrich, Milan, Italy), as described in [58]. Briefly, A549 cells were treated for 48 h in complete medium with TGFβ (10 ng/mL). Next, cells (2.5 × 10^3) were plated into 96-multiwell plates in 100 µL of complete medium. After adhesion, the compounds were added to the medium at different concentrations. After 24 h exposure, the medium was replaced with 100 µL MTT reagent in each well, and plates were incubated at 37 °C. After 2 h, MTT was removed, and the blue MTT–formazan product was solubilized with dimethyl sulfoxide (DMSO, Sigma Aldrich). The absorbance of the formazan solution was read at 595 nm using the microplate reader (Bio-Rad, Milan, Italy). Inhibition of cell proliferation was calculated by the IC50 calculator (AAT Bioquest, Inc., Pleasanton, CA, USA, https://www.aatbio.com/ (accessed on 1 July 2022)).

[3] = test system: α-smooth muscle actin (α-SMA); test: α-smooth muscle actin protein expression, Western blot; assay type: cell-based, human; settings: TGFβ-treated A549 cells, 5 μM, 24 h
Procedure: Data are expressed as means ± SEM of fold increment compared to untreated cells normalized to α-tubulin.
Western blot analysis was performed on whole-cell lysates of A549 cells, exposed for 48 h to TGFβ treatment and subsequently exposed to 5 µM concentrations of different compounds. After 24 h incubation, media were rapidly removed and cell monolayers were lysed as previously described in RIPA lysis buffer, with the addition of proteinase inhibitor cocktail (04693124001 Roche Merk Life Science S.r.l., Milano, Italy) for 30 min in ice [35]. Protein content was quantified, and forty-fifty micrograms of total proteins were separated on Bolt® Bis-Tris Plus gels 4–12% (Life Technologies, Monza, Italy). Fractionated proteins were transferred from the gel to a PVDF nitrocellulose membrane using iBlot 2 system (Life Technologies, Monza, Italy). Membranes were blocked for 5 min at room temperature, with EveryBlot Biorad blocking buffer (Life Technologies, Monza, Italy). […] The protein bands were analyzed by the Odyssey Infrared Imaging System (Lycor Bioscience) using software for protein quantification. […]

[4] = test system: tumor spheroids of TGFβ-treated A549 cells and murine L929 fibroblasts; test: Inhibition of 3D tumor spheroid growth; assay type: cell-based, human; settings: 5 µM, 72 h, vs untreated spheroids
Procedure: Heterogeneous spheroids of tumor cells and fibroblasts were generated using the hanging drop technique to mimic the complex three-dimensional environment of tumor tissues. […] Next, the fluorescence intensities associated with each cell population were analyzed as previously described.
Hanging drop tumor spheroids were prepared starting from 1:1 mixed cell population (1000 cells/25μL) of TGF𝛽-treated A549 cells and murine L929 fibroblasts. […] (C) Quantitative analysis of inhibition of 3D growth and (D) 3D spheroid internalization of the compounds after 72 h exposure. Data are representative of three independent experiments (n = 6) and expressed as means ± SEM. * p < 0.05 vs. untreated spheroids.
A549 cells, exposed for 48 h to TGFβ treatment, were mixed in a 1:1 ratio with murine L929 fibroblast (40,000/mL) in order to obtain 3D multicellular tumor spheroids (MCTS) resembling cellular heterogenicity of the neoplastic lesion. […] After one week, multicellular tumor spheroids were completely formed. Tumor spheroids were next used in different experimental procedures. […] For 3D growth inhibition, spheroids were placed on 2% agarose coated dishes in complete medium containing the different treatments at 5 µM concentration. Spheroid areas were analysed and compared to time 0 and used to evaluate the inhibition of 3D growth (yellow lines). Images of all spheroids were taken daily using the EVOS XL Core Imaging System with a 10x objective (Thermofisher Scientific, Waltham, MA, USA ). All images were analysed using the open-source software ImageJ (1.52a, National Institutes of Health, Bethesda, MD, USA).

[5] = test system: tumor spheroids of TGFβ-treated A549 cells and murine L929 fibroblasts; test: Tumor spheroid 2D flat surface migration and growth; assay type: cell-based, human; settings: 5 µM, fibronectin-coated flat surface
Procedure: Heterogeneous spheroids of tumor cells and fibroblasts were also used to evaluate the ability of the compounds to inhibit 2D flat surface migration and growth once the spheroids were allowed to attach to a suitable surface (Figure 8).
Hanging drop tumor spheroids were allowed to spread on a 2D fibronectin-coated flat surface. […] Data are representative of three independent experiments (n = 6) and expressed as means ± SEM. * p < 0.05 vs. untreated spheroids.
A549 cells, exposed for 48 h to TGFβ treatment, were mixed in a 1:1 ratio with murine L929 fibroblast (40,000/mL) in order to obtain 3D multicellular tumor spheroids (MCTS) resembling cellular heterogenicity of the neoplastic lesion. […] After one week, multicellular tumor spheroids were completely formed. Tumor spheroids were next used in different experimental procedures. We evaluated 2D flat surface inhibition of migration and growth, and the inhibition of 3D growth. For 2D flat surface migration and growth inhibition assays, the spheroids were placed on regular culture dishes and allowed to spread and grow in complete medium containing different compounds at 5 µM concentration. The areas of cell spreading were used as parameters for migration (red lines), while the areas of the spheroid core were used as parameters for 2D growth (yellow lines). For 3D growth inhibition, spheroids were placed on 2% agarose coated dishes in complete medium containing the different treatments at 5 µM concentration. Spheroid areas were analysed and compared to time 0 and used to evaluate the inhibition of 3D growth (yellow lines). Images of all spheroids were taken daily using the EVOS XL Core Imaging System with a 10x objective (Thermofisher Scientific, Waltham, MA, USA ). All images were analysed using the open-source software ImageJ (1.52a, National Institutes of Health, Bethesda, MD, USA).

[6] = test system: TGFβ-treated A549 cells; test: Invasion assay through fibronectin-coated filters; assay type: cell-based; settings: Homo sapiens, 24 h, read-out: migration inhibition (invasiveness) with respect to control
Procedure: The first assay envisaged the evaluation of cellular invasiveness of TGFβ-treated A549 cells by measuring the capacity of cells to migrate through fibronectin-coated filters.
Cells were allowed to migrate towards fibronectin-coated filters (10 μg/μL). Right panel, quantification of invasiveness. Data are percentages of migrated cells compared to untreated cells and expressed as mean value ± SEM of at least three independent experiments. * p < 0.05 and ** p < 0.001 vs. untreated cells. […] Experiments were performed at least three times.
Invasiveness of A549 cells was determined in vitro on fibronectin-precoated polycarbonate inserts (Sarstedt 83.3932.800, 8µm pore size, 0.3 cm^2 growth surface). Briefly, 50 µL of 10 μg/mL of fibronectin solution were seeded on each insert and allowed to dry in sterile conditions (1.6 µg/cm^2). A549 human lung carcinoma cells were grown in the presence of TGFβ for 48 h. After incubation, 3.5 × 10^4 cells were exposed to the different compounds, in serum-free medium (at 5 µM concentration), seeded in the upper compartment of the insert, and were free to perform in the absence of any chemoattractant. Inserts were incubated for 24 h at 37 °C in 10% CO2 in air. […] Photographs of randomly chosen fields were taken, and migrated cells were counted in 4 field/photograph.

[7] = test system: TGFβ-treated A549 cells; test: F-actin cytoskeleton by confocal analysis (rhodamine-phalloidin); assay type: cell-based, human; settings: 5 μM, 24 h
Procedure: After incubation, cells were fixed and processed for fluorescence confocal imaging. The cell cytoskeleton was stained with rhodamine-conjugated phalloidin. Image dimensions: 180 × 180 μm, scale bar 50 μm. Experiments were performed at least three times. (C) Quantification of disassembled cytoskeleton expressed as the percentage of cells with point-like fluorescence signals/total cells per field. Data are representative of three independent experiments. * p < 0.05, and ** p < 0.001 vs. TGFβ treated cells.
A549 cells, exposed for 48 h to TGFβ treatment, were grown on fibronectin-coated (10 µg/mL) (sc-29011 SantaCruz, D.B.A., Milano Italy) glass coverslips in 6-well plates for 2 h, after which adherent cells were exposed to the different treatments, in the absence of FCS, for 24h. After incubation, the culture medium was removed, cells were washed with PBS, and fixed 30 min at 4 °C with 3.7% paraformaldehyde. Cells were permeabilized for 15 min with PBS 0.1% Tryton X-100 at room temperature, and then incubated 1 h at room temperature with blocking buffer (0.1% Tryton X-100 and 5.5% horse serum PBS). […] A single composite image was obtained by superimposition of 20 optical sections for each sample analyzed.

[8] = test system: E-cadherin; test: E-cadherin expression, Western blot; assay type: cell-based, human; settings: TGFβ-treated A549 cells, 5 μM, 24 h
Procedure: Left panel, representative Western blot of E-cadherin protein expression.
Western blot analysis was performed on whole-cell lysates of A549 cells, exposed for 48 h to TGFβ treatment and subsequently exposed to 5 µM concentrations of different compounds. After 24 h incubation, media were rapidly removed and cell monolayers were lysed as previously described in RIPA lysis buffer, with the addition of proteinase inhibitor cocktail (04693124001 Roche Merk Life Science S.r.l., Milano, Italy) for 30 min in ice [35]. Protein content was quantified, and forty-fifty micrograms of total proteins were separated on Bolt® Bis-Tris Plus gels 4–12% (Life Technologies, Monza, Italy). Fractionated proteins were transferred from the gel to a PVDF nitrocellulose membrane using iBlot 2 system (Life Technologies, Monza, Italy). Membranes were blocked for 5 min at room temperature, with EveryBlot Biorad blocking buffer (Life Technologies, Monza, Italy). Subsequently, the membranes were probed at 4 °C overnight with appropriate primary antibodies diluted in a solution of 1:1 Odyssey blocking buffer/T-PBS buffer, washed four times with PBS-Tween 0.1% solution, and probed with the secondary IRDye antibodies according to manufacturering instructions. The protein bands were analyzed by the Odyssey Infrared Imaging System (Lycor Bioscience) using software for protein quantification. […]

[9] = test system: TGFβ-treated A549 cells; test: Clonogenic assay; assay type: cell-based, human; settings: sorted fluorescence-positive TGFβ-treated A549 cells after 5 μM 24 h; 2 weeks growth
Procedure: (A) After incubation, cells were sorted (BDMelody) and isolated cells from the selected population (indicated as P4) were seeded at low density (1000 cells/6 well petri dishes). (B) Number of colonies obtained after 2 weeks growth in standard media. (C) Quantification of colonies.
A549 lung adenocarcinoma cells were grown in the presence of TGFβ for 48 h. […] At the end of the incubation, cells were sorted using a fluorescence activated cell sorter (Melody, Becton Dickinson, Bioscience, Eysins, Switzerland). […] Activation of the labelled cells was provided by the violet laser (ex = 405 nm) while sorting of the activated cells was performed by their emitted wavelength at 480 nm (detection filter 450/50, using the BV480 channel). Isolated cells (1 × 10^3) were seeded in a FN-coated 6 well dishes. These isolated cells were cultured for 2 weeks. The medium was changed every 4 days until the emergence of colonies. The colonies were fixed and stained with Diff-Quick solution.

With `COC(=O)c1ccc2c(c1)NC(=O)/C2=C(\Nc1ccc(N(C)C(=O)CN2CCN(C)CC2)cc1)c1ccccc1` [nintedanib, Nintedanib] the “fluorescence-positive cells (compound internalization)” value [1] was 95–100%, the “inhibition of cell proliferation (in words)” value ([2]; 0.5-50 μM, 24 h (Figure S8)) was “concentration-dependent inhibition” and the IC50 ([2]; Homo sapiens, A549, 24 h, read-out: IC50, inhibition of cell proliferation (MTT)) was 7.5 µM. The “inhibition of cell proliferation (in words)” value ([2]; TGFβ-treated A549 cells, concentrations >10 μM) was “almost completely inhibited”, the α-SMA protein expression [3] was “reduced by half” and the “inhibition of 3D spheroid growth” value [4] was “inhibited significantly”. The “2D flat surface migration of tumor spheroids” value [5] was “significantly impaired; also recorded: strong inhibition”, the “2D growth of tumor spheroids (spheroid core)” value [5] was “significantly impaired” and the inhibition at 5 µM [6] was 80%. For the same molecule, the F-actin bundle disassembly [7] was “more significant reduction in the assembly of F-actin filaments”, the E-cadherin expression [8] was “enhanced” and the “reduction of colony formation compared to untreated cells” value [9] was 50%.
